IC50 data for two molecules are collected here from ChEMBL document CHEMBL6087463, “Discovery of Novel 4,5,6,7-Tetrahydro-7H-pyrazolo[3,4-c]pyridin-7-one Derivatives as Orally Efficacious ATX Allosteric Inhibitors for the Treatment of Pulmonary Fibrosis” (J Med Chem, 2025).

In one test the target is Autotaxin (Homo sapiens, UniProt Q13822). The test is described as follows: Inhibition of human ATX using LPC16:0 as substrate preincubated with compound for 20 mins followed by substrate addition and measured after 1 hr by fluorescence based microplate analysis.
The target of test [1] is Voltage-gated inwardly rectifying potassium channel KCNH2 (Homo sapiens, UniProt Q12809). The test is described as follows: Inhibition of hERG expressed in CHO cells by automated patch-clamp assay. In kind it is toxicity, cell-based. On the technique in general: The hERG channel carries a current that helps repolarise heart muscle cells.

pIC50: −log10 of the molar value. A value given as a limit tells only on which side of the number the result lay.

As usually defined, the pIC50 is −log10 of the IC50, conventionally taken in molar units.

Sequence of Voltage-gated inwardly rectifying potassium channel KCNH2 (Q12809 whole entry): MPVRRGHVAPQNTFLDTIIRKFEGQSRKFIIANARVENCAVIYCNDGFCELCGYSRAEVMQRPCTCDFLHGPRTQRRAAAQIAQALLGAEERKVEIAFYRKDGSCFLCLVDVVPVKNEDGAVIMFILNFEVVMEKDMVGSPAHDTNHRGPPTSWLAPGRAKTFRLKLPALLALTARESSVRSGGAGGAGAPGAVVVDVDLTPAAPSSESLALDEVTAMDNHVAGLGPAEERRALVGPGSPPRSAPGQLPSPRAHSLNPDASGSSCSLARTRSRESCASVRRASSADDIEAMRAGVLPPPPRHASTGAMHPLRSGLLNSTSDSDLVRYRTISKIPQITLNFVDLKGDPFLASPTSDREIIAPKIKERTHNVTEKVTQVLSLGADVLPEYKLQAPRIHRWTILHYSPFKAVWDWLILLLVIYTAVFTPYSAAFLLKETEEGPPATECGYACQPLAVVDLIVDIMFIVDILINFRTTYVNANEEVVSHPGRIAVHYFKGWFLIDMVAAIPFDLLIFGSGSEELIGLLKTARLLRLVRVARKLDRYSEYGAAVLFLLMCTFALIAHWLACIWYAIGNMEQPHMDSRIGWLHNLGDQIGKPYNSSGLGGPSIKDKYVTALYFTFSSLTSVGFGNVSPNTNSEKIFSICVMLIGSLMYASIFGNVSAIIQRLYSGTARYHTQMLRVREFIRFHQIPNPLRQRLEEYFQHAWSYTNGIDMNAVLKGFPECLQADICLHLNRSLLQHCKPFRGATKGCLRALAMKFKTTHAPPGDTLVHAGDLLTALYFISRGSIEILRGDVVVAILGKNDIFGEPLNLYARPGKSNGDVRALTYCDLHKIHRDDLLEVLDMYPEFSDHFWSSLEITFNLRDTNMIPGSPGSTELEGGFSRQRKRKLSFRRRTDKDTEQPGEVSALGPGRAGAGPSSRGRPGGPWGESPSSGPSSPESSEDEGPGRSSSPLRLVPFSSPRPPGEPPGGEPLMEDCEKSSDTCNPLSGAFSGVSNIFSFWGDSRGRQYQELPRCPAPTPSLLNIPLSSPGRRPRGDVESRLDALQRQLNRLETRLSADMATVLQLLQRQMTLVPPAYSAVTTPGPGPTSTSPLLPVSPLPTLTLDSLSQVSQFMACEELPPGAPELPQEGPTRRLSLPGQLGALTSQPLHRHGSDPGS

For the molecule `CC(C)n1cc(-n2nc(C(=O)NN3CCCC(C(=O)O)C3)c3c2C(=O)N(c2ccccc2)CC3)cn1` (configuration not stated), on Autotaxin, the pIC50 is 5.49.

On to `COCn1cc(-n2nc(C(=O)Nc3ccccc3C(=O)O)c3c2C(=O)N(c2ccccc2)CC3)cn1`, for which the negative-log IC50 (pIC50) in test [1] was less than 4.52.
